The values that follow come from patent publication US20220402867A1, “SULFO-SUBSTITUTED BIARYL COMPOUND OR SALT THEREOF, PREPARATION METHOD THEREFOR, AND USE THEREOF” (Shanghai Litedd Co., Ltd., priority 2019, published 2022).

Data set [1] has as its target T1, GST-RORγ LBD (263-509) (Homo sapiens, UniProt P51449).
T1 construct: GST-RORγ LBD ((263-509) (produced at ChemPartner))
T1 sequence (P51449 263-509): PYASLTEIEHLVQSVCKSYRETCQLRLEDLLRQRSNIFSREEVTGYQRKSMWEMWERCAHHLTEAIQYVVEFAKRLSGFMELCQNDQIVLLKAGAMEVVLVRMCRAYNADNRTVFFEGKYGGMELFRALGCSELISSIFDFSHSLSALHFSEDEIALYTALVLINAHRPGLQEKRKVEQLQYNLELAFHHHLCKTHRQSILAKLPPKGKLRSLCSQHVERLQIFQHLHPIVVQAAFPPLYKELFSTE
In words: TR-FRET assay of agonistic activity on RORγ receptor. Format: biochemical. The note with it: for EC50: TR-FRET, GST-RORγ LBD with Biotin-SRC1; for Emax: maximum activation rate, TOP of fitted curve. The method in brief:
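GST-RORγ LBD (75 nM solution) mixed 1:1 with Biotin-SRC1 (4 nM solution), then with Eu anti-GST and SA-APC; compounds in 10-point 3-fold series from 10 mM stock, duplicate.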

The test system of data set [2] is mouse spleen lymphocytes (Th17 cells). In words: Th17 differentiation and IL-17 secretion in mouse lymphocytes. Format: cell-based. The note with it: Lymphocyte, IL-17 ELISA after 48 hours; for Emax: maximum activation rate. Here is the method: Test procedure: the mouse spleen lymphocytes were first isolated, and the lymphocytes were subject to the conditions of stimulating factors (anti-mCD28: 5 μg/mL; rmTGF-β1: 1 ng/mL; rmIL-6: 50 ng/mL; rmIL-23: 5 ng/mL) and differentiated to Th17, while adding different concentrations of compounds. All test compounds were serially diluted at 3-fold dilution with DMSO, with 8 serial dilutions starting from the maximum concentration 3 μM. The supernatants were collected after 48 hours for IL-17 ELISA detection, and compared with the solvent group, to determine the activation rate of the compounds on Th17 cells to secrete IL-17. EC50 values were fitted with Graphad 8.0, and the TOP values fitted by the software was Emax %.

Data set [3] deals with human PBMC (Th17 cells). Description: Th17 differentiation and IL-17 secretion in human PBMC. Format: cell-based. The note with it: IL-17 ELISA after 48 hours; for Emax: maximum activation rate. Here is the method: Test procedure: PBMC cells were first thawed and plated, and then stimulated with stimulating factors (anti-hCD28: 5 μg/mL; rhTGF-β1: 5 ng/mL; rhIL-6: 20 ng/mL; rhIL-23: 10 ng/Ml) to differentiate to Th17, while adding different concentrations of compounds. All test compounds were serially diluted at 3-fold dilution with DMSO, with 8 serial dilutions starting from the maximum concentration 3 μM. The supermatants were collected after 48 hours for IL-17 ELISA detection, and compared with the solvent group, to determine the activation rate of the compounds on Th17 cells to secrete IL-17. EC50 values were fitted with Graphad8.0, and the TOP values fitted by the software was Emax %.

A short description of data set [4]: Metabolic stability in human liver microsomes. Format: in vitro ADME. The note with it: for microsomal CLint: 0.5 mg protein/mL. In short, it runs like this:
(§1)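 Compound incubated at 37 °C with 0.5 mg protein/mL liver microsomes plus cofactors in PBS, sampled at 0–60 min, quenched with cold acetonitrile and quantified by HPLC-MS/MS (n=3). Half-life and Clint (μL/min/mg) come from the slope of ln(% remaining) versus time.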

A short description of data set [5]: Metabolic stability in mouse liver microsomes. Format: in vitro ADME, CD-1 mice. The following applies: for half-life: CD-1; for microsomal CLint: CD-1, 0.5 mg protein/mL. In short, it runs like this: as §1

With `CCS(=O)(=O)c1ccc(CC(=O)Nc2cc(Cl)c(-c3ccc(S(C)(=O)=O)cc3)c(Cl)c2)cc1` [Example 2, N-(2,6-dichloro-4′-(methylsulfonyl)-[1,1′-biphenyl]-4-yl)-2-(4-(ethylsulfonyl)phenyl)acetamide], in data set [1], the EC50 was found to be 0.0091 µM and the Emax was 210%. In data set [2], this compound displayed an EC50 of 0.114 µM and a maximal effect (Emax) of 203%. In data set [3], this compound gave an EC50 of 0.0616 µM and an Emax of 138%. In data set [4], the half-life was greater than 2.42 h, the microsomal CLint is less than 9.6 µL/min/mg and the “% Remaining (T = 60 min)” value was found to be 75.7%. In data set [5], the “% Remaining (T = 60 min)” value came out at 89.30%, the half-life was greater than 2.42 h and the microsomal CLint was less than 9.6 µL/min/mg.

In data set [1], `CCS(=O)(=O)c1ccc(-c2c(Cl)cc(NC(=O)Cc3ccc(S(C)(=O)=O)cn3)cc2Cl)cc1` [Example 9, N-(2,6-Dichloro-4′-(ethylsulfonyl)-[1,1′-biphenyl]-4-yl)-2-(5-(methylsulfonyl)pyridin-2-yl)acetamide] registered a half-maximal effective concentration (EC50) of 0.0222 µM and an Emax of 160%. In data set [2], this compound came in with an EC50 of 0.943 µM and an Emax of 65.4%. In data set [3], this compound yielded an EC50 of 0.36 µM and an Emax of 167%. In data set [4], the half-life was greater than 2.42 h, the microsomal CLint is less than 9.6 µL/min/mg and the “% Remaining (T = 60 min)” value was determined as 102.5%. Further, in data set [5], the “% Remaining (T = 60 min)” value is reported as 64.20% and the half-life was 1.64 h.

Consider `CCS(=O)(=O)c1ccc(C(COC)C(=O)Nc2cc(Cl)c(-c3ccc(S(=O)(=O)C4CC4)cc3)c(Cl)c2)cc1` (stereo not shown) [Example 16, N-(2,6-Dichloro-4′-(cyclopropylsulfonyl)-[1,1′-biphenyl]-4-yl)-2-(4-(ethylsulfonyl)phenyl)-3-methoxypropionamide], for which, in data set [1], the EC50 was 0.0166 µM and the Emax is 187%. In data set [3], the EC50 is 0.0273 µM and the Emax amounted to 202%. Also, in data set [4], the half-life is greater than 2.42 h, the microsomal CLint was less than 9.6 µL/min/mg and the “% Remaining (T = 60 min)” value came out at 100.7%. For the same compound, in data set [5], the “% Remaining (T = 60 min)” value is 68.90%, the half-life turned out to be 2.24 h and the microsomal CLint was determined as 10.7 µL/min/mg.

In data set [1], `COCC(C(=O)Nc1cc(Cl)c(-c2ccc(S(=O)(=O)C3CC3)cc2)c(Cl)c1)c1ccc(S(C)(=O)=O)cc1` (stereo not shown) [Example 20, N-(2,6-Dichloro-4′-(cyclopropylsulfonyl)-[1,1′-biphenyl]-4-yl)-3-methoxy-2-(4-(methylsulfonyl)phenyl)propionamide] gave an EC50 of 0.0195 µM and an Emax of 192%. In data set [3], this compound gave an EC50 of 0.0189 µM and an Emax of 228%. Further, in data set [4], the half-life was 1.34 h, the microsomal CLint worked out at 17.3 µL/min/mg and the “% Remaining (T = 60 min)” value was 53.9%. Besides, in data set [5], the “% Remaining (T = 60 min)” value is 75.50%, the half-life amounted to 2.21 h and the microsomal CLint came out at 10.5 µL/min/mg.

In data set [1], `CS(=O)(=O)c1ccc(CC(=O)Nc2cc(Cl)c(-c3ccc(S(=O)(=O)C4CC4)cc3)c(Cl)c2)cc1` [Example 11, N-(2,6-Dichloro-4′-(cyclopropylsulfonyl)-[1,1′-biphenyl]-4-yl)-2-(4-(methylsulfonyl)phenyl)acetamide] gave an EC50 of 0.0068 µM and an Emax of 167%. In data set [2], this compound gave an EC50 of 0.318 µM and an Emax of 123%. In data set [3], this compound had an EC50 of 0.0528 µM and an Emax of 149%. For the same compound, in data set [4], the half-life was greater than 2.42 h, the microsomal CLint is less than 9.6 µL/min/mg and the “% Remaining (T = 60 min)” value turned out to be 110.5%. Besides, in data set [5], the “% Remaining (T = 60 min)” value is on record as 97.10%, the half-life was greater than 2.42 h and the microsomal CLint is less than 9.6 µL/min/mg.

In the case of `CCS(=O)(=O)c1ccc(-c2c(Cl)cc(NC(=O)C(COC)c3ccc(S(=O)(=O)CC)cc3)cc2Cl)cc1` (stereo not shown) [Example 13, N-(2,6-Dichloro-4′-(ethylsulfonyl)-[1,1′-biphenyl]-4-yl)-2-(4-(ethylsulfonyl)phenyl)-3-methoxypropionamide], the EC50 in data set [1] is 0.0121 µM; in data set [2], 0.0057 µM; in data set [3], 0.0062 µM. Besides, the Emax in data set [1] turned out to be 171%; in data set [2], 134%; in data set [3] it was 139%. The half-life is 2.07 h in data set [4] and 0.543 h in data set [5]. Moreover, the “% Remaining (T = 60 min)” value in data set [4] was 71.4%; in data set [5] it was 28%.

In data set [1], `CCS(=O)(=O)c1ccc(CC(=O)Nc2cc(Cl)c(-c3ccc(S(C)(=O)=O)cc3)c(Cl)c2)nc1` [Example 8, N-(2,6-Dichloro-4′-(methylsulfonyl)-[1,1′-biphenyl]-4-yl)-2-(5-(ethylsulfonyl)pyridin-2-yl)acetamide] registered an EC50 of 0.0101 µM and an Emax of 170%. Further, in data set [2], the midpoint of the response, the EC50, lay at 0.37 µM and the maximum response (Emax) worked out at 85%. Moreover, in data set [3], the EC50 is 0.347 µM and the Emax came out at 129%. In data set [4], the half-life is greater than 2.42 h, the microsomal CLint is less than 9.6 µL/min/mg and the “% Remaining (T = 60 min)” value is 95.6%. Besides, in data set [5], the “% Remaining (T = 60 min)” value was determined as 107.80%, the half-life is greater than 2.42 h and the microsomal CLint was less than 9.6 µL/min/mg.

With `CCS(=O)(=O)c1ccc(-c2c(Cl)cc(NC(=O)Cc3ccc(S(C)(=O)=O)cc3)cc2Cl)cc1` [Example 4, N-(2,6-Dichloro-4′-(ethylsulfonyl)-[1,1′-biphenyl]-4-yl)-2-(4-(methylsulfonyl)phenyl)acetamide], the EC50 in data set [1] was determined as 0.0096 µM; in data set [2], 0.112 µM; in data set [3], 0.0304 µM. Moreover, the Emax in data set [1] came to 220%; in data set [2], 156%; in data set [3], 152%. Moreover, the half-life in data set [4] is greater than 2.42 h; in data set [5], 0.47 h. The microsomal CLint in data set [4] is less than 9.6 µL/min/mg. Moreover, the “% Remaining (T = 60 min)” value in data set [4] amounted to 83.4%; in data set [5], 22.20%.

For `CCS(=O)(=O)c1ccc(-c2c(Cl)cc(NC(=O)Cc3ccc(S(=O)(=O)CC)cn3)cc2Cl)cc1` [Example 5, N-(2,6-Dichloro-4′-(ethylsulfonyl)-[1,1′-biphenyl]-4-yl)-2-(5-(ethylsulfonyl)pyridin-2-yl)acetamide], in data set [1], the EC50 stood at 0.0085 µM and the Emax was found to be 222%. In data set [2], this compound gave an EC50 of 0.0114 µM and an Emax of 147%. In data set [3], this compound gave an EC50 of 0.0332 µM and an Emax of 123%. Moreover, in data set [4], the half-life was greater than 2.42 h, the microsomal CLint is less than 9.6 µL/min/mg and the “% Remaining (T = 60 min)” value stood at 76.7%. In data set [5], the “% Remaining (T = 60 min)” value is listed as 35.50% and the half-life stood at 0.707 h.

Take `COCC(C(=O)Nc1ccc(-c2ccc(S(=O)(=O)C3CC3)cc2)c(C(F)(F)F)c1)c1ccc(S(C)(=O)=O)cc1` (single isomer, unassigned) [Example 43, (S)—N-(4′-(cyclopropylsulfonyl)-2-(trifluoromethyl)-[1,1′-biphenyl]-4-yl)-3-methoxy-2-(4-(methylsulfonyl)phenyl)propionamide or (R)—N-(4′-(cyclopropylsulfonyl)-2-(trifluoromethyl)-[1,1′-biphenyl]-4-yl)-3-methoxy-2-(4-(methylsulfonyl)phenyl)propanamide]: in data set [1], the response was half-maximal at 0.0062 µM (EC50) and the Emax is 194%. In addition, in data set [3], the EC50 is 0.135 µM and the Emax is 265%. Further, in data set [4], the half-life turned out to be 1.68 h, the microsomal CLint was determined as 13.8 µL/min/mg and the “% Remaining (T = 60 min)” value came to 69%. In data set [5], the “% Remaining (T = 60 min)” value is 64.4%, the half-life came to 1.56 h and the microsomal CLint was found to be 14.8 µL/min/mg.
